Test results as given in ChEMBL document CHEMBL1153748 (J Med Chem, 2010).

Key:
[1] = target: Peroxisome proliferator-activated receptor delta (Homo sapiens) (UniProt Q03181); test: Agonist activity at human PPARdelta by FRET assay
[2] = target: T1, Peroxisome proliferator-activated receptor alpha (Homo sapiens, UniProt Q07869); test: Agonist activity at human PPARalpha ligand binding domain expressed in human 293T cells co-transfected with Gal4-DBD by luciferase transactivation assay; type: cell-based; settings: read-out: EC50
T1 sequence (Q07869 whole entry): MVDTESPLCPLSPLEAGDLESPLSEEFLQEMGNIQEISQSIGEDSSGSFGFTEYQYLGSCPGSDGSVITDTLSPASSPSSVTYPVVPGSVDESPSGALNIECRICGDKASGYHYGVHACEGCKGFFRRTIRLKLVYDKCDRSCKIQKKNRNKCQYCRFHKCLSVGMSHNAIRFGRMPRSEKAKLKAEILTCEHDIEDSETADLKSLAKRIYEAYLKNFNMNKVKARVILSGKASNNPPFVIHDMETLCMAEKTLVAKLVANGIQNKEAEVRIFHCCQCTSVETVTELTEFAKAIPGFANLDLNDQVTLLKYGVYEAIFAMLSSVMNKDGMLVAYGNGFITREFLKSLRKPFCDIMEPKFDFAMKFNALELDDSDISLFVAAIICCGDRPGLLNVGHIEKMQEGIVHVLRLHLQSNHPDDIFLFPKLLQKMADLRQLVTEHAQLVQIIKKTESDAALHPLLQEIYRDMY

[3] = target: T2, Peroxisome proliferator-activated receptor delta (Homo sapiens, UniProt Q03181)
T2 sequence (Q03181 whole entry): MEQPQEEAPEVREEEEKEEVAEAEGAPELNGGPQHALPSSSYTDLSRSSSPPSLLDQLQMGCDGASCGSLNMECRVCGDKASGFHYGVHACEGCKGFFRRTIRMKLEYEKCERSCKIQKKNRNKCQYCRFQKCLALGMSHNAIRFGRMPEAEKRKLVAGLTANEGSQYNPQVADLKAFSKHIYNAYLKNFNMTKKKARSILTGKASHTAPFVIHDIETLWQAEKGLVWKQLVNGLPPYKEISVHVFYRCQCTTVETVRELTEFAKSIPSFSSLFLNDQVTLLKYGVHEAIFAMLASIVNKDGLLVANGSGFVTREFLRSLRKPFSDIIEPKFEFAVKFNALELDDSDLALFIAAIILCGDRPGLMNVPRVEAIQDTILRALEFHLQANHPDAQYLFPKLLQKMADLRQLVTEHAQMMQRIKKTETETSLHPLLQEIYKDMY

Mus musculus [4] = test: Upregulation of PDK4 expression in C57BL/6 mouse at 10 mg/kg, po qd relative to control; type: functional
[5] = target: T3, Peroxisome proliferator-activated receptor gamma (Homo sapiens, UniProt P37231); type: cell-based, 293T; settings: read-out: EC50
T3 sequence (P37231 whole entry): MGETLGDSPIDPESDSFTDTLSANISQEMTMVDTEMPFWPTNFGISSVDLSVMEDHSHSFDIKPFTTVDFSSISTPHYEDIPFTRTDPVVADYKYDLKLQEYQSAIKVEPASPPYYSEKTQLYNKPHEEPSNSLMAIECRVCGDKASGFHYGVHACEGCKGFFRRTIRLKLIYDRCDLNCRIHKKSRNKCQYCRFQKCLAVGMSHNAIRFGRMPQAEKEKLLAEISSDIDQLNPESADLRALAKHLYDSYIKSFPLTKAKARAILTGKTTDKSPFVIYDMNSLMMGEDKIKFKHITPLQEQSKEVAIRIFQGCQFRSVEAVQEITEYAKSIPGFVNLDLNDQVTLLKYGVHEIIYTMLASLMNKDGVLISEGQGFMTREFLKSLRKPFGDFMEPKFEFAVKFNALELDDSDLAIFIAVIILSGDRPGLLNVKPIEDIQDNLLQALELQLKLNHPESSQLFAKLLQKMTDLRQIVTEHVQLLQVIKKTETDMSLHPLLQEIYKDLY

[6] = AUC ((0 to 24 hrs)) in Balb/c mouse at 10 mg/kg, po qd; settings: plasma
[7] = Cmax in Balb/c mouse at 10 mg/kg, po qd; settings: in vivo
[8] = target: T2, Peroxisome proliferator-activated receptor delta; remark: listed apart in the source
[9] = Half life in Balb/c mouse at 10 mg/kg, po qd; settings: in vivo
Mus musculus [10] = test: Upregulation of UCP3 expression in C57BL/6 mouse at 10 mg/kg, po qd relative to control; type: functional
[11] = Oral bioavailability in Balb/c mouse at 10 mg/kg daily; settings: in vivo
[12] = target: T4, Peroxisome proliferator-activated receptor alpha (Homo sapiens) (UniProt Q07869); test: Agonist activity at human PPARalpha ligand binding domain expressed in human 293T cells co-transfected with Gal4-DBD by luciferase transactivation assay relative to KRP297; type: cell-based
T4 sequence (whole entry): T1 sequence (Q07869 whole entry)

Row | SMILES | EC50 [1] | EC50 [2] | EC50 [3] | fold change (FC) (Mus musculus [4]) | EC50 [5] | AUC at 24 h [6] | Cmax [7] | EC50 [8] | half-life [9] | fold change (FC) (Mus musculus [10]) | bioavailability [11] | Efficacy [12]
1 | Cc1cc(OCc2nc(-c3ccc(OC(C)C)nc3)c(-c3ccc(OC(F)(F)F)cc3)s2)ccc1OCC(=O)O | 13 nM | > 10000 nM | 12 nM | 1.9 | > 10000 nM | 62.9 µM·h | 4.7 µM | 8 nM | 10.8 h | 2.9 | 72% | 
2 | Cc1cc(OCc2nc(-c3ccc(N4CCOCC4)cc3)c(-c3ccc(-c4ccccc4)cc3)s2)ccc1OCC(=O)O | 72 nM |  | 14 nM | 1.4 |  | 31.9 µM·h | 2.7 µM | 18 nM | 5.1 h | 2.5 | 30% | 
3 | Cc1cc(OCc2nc(-c3ccc(OC4CCCC4)cc3)c(-c3ccc(OC(F)(F)F)cc3)s2)ccc1OCC(=O)O | 31 nM | > 10000 nM | 15 nM | 1.9 | > 10000 nM | 16.1 µM·h | 1.2 µM | 10 nM | 7.6 h | 2.8 | 19% | 
4 | Cc1cc(OCc2nc(-c3cnc(OC(C)C)nc3)c(-c3ccc(OC(F)(F)F)cc3)s2)ccc1OCC(=O)O | 10 nM | > 10000 nM | 14 nM | 1.6 | > 10000 nM | 20.1 µM·h | 3.5 µM | 6 nM | 2.3 h | 1.5 | 88% | 
5 | Cc1cc(OCc2nc(-c3cccnc3)c(-c3ccc(-c4ccccc4)cc3)o2)ccc1OCC(=O)O | 30 nM |  | 6 nM |  |  | 0.814 µM·h | 0.4 µM | 8 nM | 4 h |  | 10% | 
6 | Cc1cc(OCc2nc(-c3ccc(OC(C)C)cc3)c(-c3cccc(OC(F)(F)F)c3)s2)ccc1OCC(=O)O | 46 nM |  | 16 nM | 1.7 |  | 20.3 µM·h | 2.4 µM | 9 nM | 3.2 h | 1.9 | 49% | 
7 | Cc1cc(OCc2nc(-c3ccc(OC(C)C)cc3)c(-c3ccc(-c4ccccc4)cc3)s2)ccc1OCC(=O)O | 29 nM |  | 10 nM | 1.5 |  |  |  | 9 nM |  | 2.4 |  | 
8 | COc1ccc(-c2nc(COc3ccc(OCC(=O)O)c(C)c3)sc2-c2ccc(OC(F)(F)F)cc2)cn1 | 90 nM | > 10000 nM | 12 nM | 1.9 | > 10000 nM | 196 µM·h | 17.3 µM | 17 nM | 4.6 h | 2.5 | 140% | 
9 | Cc1cc(OCc2nc(-c3ccc(OC(C)C)cc3)c(-c3ccc(OC(F)(F)F)cc3)o2)ccc1OCC(=O)O | 9 nM | 2600 nM | 13 nM | 2.3 | > 10000 nM | 104 µM·h | 7.8 µM | 3 nM | 5.1 h | 2.2 | 129% | 43%
10 | Cc1cc(OCc2nc(-c3ccc(OC(C)C)cc3)c(-c3ccc(OC(F)(F)F)cc3)s2)ccc1OCC(=O)O | 26 nM | > 10000 nM | 10 nM | 1.9 | > 10000 nM | 54.1 µM·h | 3.7 µM | 7 nM | 9 h | 2.4 | 88% | 
11 | COc1ccc(-c2nc(COc3ccc(OCC(=O)O)c(C)c3)oc2-c2ccc(OC(F)(F)F)cc2)cn1 | 97 nM | > 10000 nM | 10 nM | 1.2 | > 10000 nM | 96.8 µM·h | 13.7 µM | 8 nM | 2.5 h | 1.4 | 89% | 
12 | Cc1cc(OCc2nc(-c3ccc(OC4CCCC4)cc3)c(-c3ccc(OC(F)(F)F)cc3)o2)ccc1OCC(=O)O | 9 nM | 910 nM | 12 nM | 2.1 | > 10000 nM | 23.3 µM·h | 2.4 µM | 4 nM | 3.1 h | 2.5 | 35% | 56%
13 | Cc1cc(OCc2nc(-c3ccc(OC(C)C)cc3)c(-c3ccc(C(F)(F)F)cc3)s2)ccc1OCC(=O)O | 20 nM |  | 16 nM | 1.1 |  | 37.3 µM·h | 2.8 µM | 11 nM | 3.9 h | 1.7 | 70% | 
14 | Cc1cc(OCc2nc(-c3ccc(OC(C)C)nc3)c(-c3ccc(OC(F)(F)F)cc3)o2)ccc1OCC(=O)O | 7 nM | 790 nM | 14 nM | 1.5 | 70000 nM | 95.8 µM·h | 9.1 µM | 2490 nM | 5.3 h | 2.5 | 144% | 20%
15 | Cc1cc(OCc2nc(-c3ccc(N4CCOCC4)nc3)c(-c3ccc(OC(F)(F)F)cc3)o2)ccc1OCC(=O)O | 5 nM | 1200 nM |  |  | 2490 nM | 1.95 µM·h | 0.7 µM | 2 nM | 3.8 h |  | 18% | 46%
16 | Cc1cc(SCc2sc(-c3ccc(C(F)(F)F)cc3)nc2C)ccc1OCC(=O)O [GW501516] |  |  |  | 2.5 |  | 29.8 µM·h | 3.9 µM |  | 4.4 h | 3.2 |  | 
17 | CCCc1ccc(-c2oc(COc3ccc(OCC(=O)O)c(C)c3)nc2-c2cnc(OC)nc2)cc1 | 30 nM |  | 10 nM | 2 |  | 6.42 µM·h | 2.2 µM | 9 nM | 2.7 h | 2.5 | 41% | 
